Experiments:
Type in all cases: in vivo, SD rats
[1] = test system: rats with hyperuricemia; assay: Urate deposition in rat kidney tissues (hexamine silver staining)
Protocol: (§1) The establishment of the model as well as the experimental grouping and administration were the same as in Example 1. 1.2 Pathological examination of kidney tissue: anesthetize rats, dissect, and remove kidney tissue. The kidney tissues were fixed with 10% neutral formalin. After sufficient fixation, sampling, gradient dehydration, xylene transparency, paraffin embedding, and preparation of 3 μm paraffin sections were performed according to routine procedures. The kidney tissue lesions as well as urate deposition in the kidney tissues were examined by light microscopy using, HE (hematoxylin & eosin) staining and hexamine silver staining, respectively. […] Among them, A in FIG. 1 and FIG. 2 is the control group, B is the model group, C and D are both β-ecdysterone underdose group, E is β-ecdysterone low dose group, F is β-ecdysterone medium dose group, G is β-ecdysterone high dose group, H is β-ecdysterone overdose group, I is allopurinol group, and J is benzbromarone group. The length unit in the lower right corner of the figure is 50 μm.

[2] = test system: rats with hyperuricemia; assay: Kidney function biochemical indicators (serum BUN and SCr) in rats with hyperuricemia; conditions: for BUN / SCr: serum, mean±SD
Text: The establishment of the model as well as the experimental grouping and administration were the same as in Example 1.
1.1 Kidney function biochemical indicators detection: the method of blood sampling and serum collection was the same as in Example 1, and an Automatic Chemical Analysis was used to detect the content of serum creatinine (SCr) by using the creatine oxidase method, and to detect the content of blood urea nitrogen (BUN) by using the urease method and the kinetic method. the effect of β-ecdysterone on the level of blood BUN and SCr of rats with hyperuricemia is shown in Table 2.

[3] = test system: rats with hyperuricemia; assay: Pathological examination of rat kidney tissue (HE staining); conditions: for pathology of kidney tissues: HE staining; for protective effect on kidney injury combined with hyperuricemia: overall conclusion from hexamine silver staining, biochemical and pathological results
Protocol: as §1

[4] = test system: rats with hyperuricemia; assay: Effect on blood uric acid level in rats with hyperuricemia (adenine combined with ethambutol model); conditions: for Blood uric acid: serum, 16 h fasting after last administration, mean±SD; for Uric acid reduction Percentage: versus model group
Protocol: There were 80 Male SPF grade SD rats, weighing 200-220 g, were purchased from Beijing Vital River Laboratory Animal Technology Co., Ltd., license No. SCXK (Beijing) 2016-0006. The animals were housed in a barrier environment animal laboratory, with automatic temperature control (temperature 20-26° C.), relative humidity 40-70%, and full fresh air. Artificial light was adopted with a 12-hour light-dark cycle. Group experiments were started after 1 day of acclimatization. Animals were fed with standard rat pellet feed, provided by Beijing Keao Xieli Feed Co. Ltd., with purified water.
The rats were randomly divided into 10 groups of 8 rats each:
(1) negative control group (control group); (2) model group; (3) β-ecdysterone underdose group-1, 6 mg/kg; (4) β-ecdysterone underdose group-2, 12 mg/kg; (5) β-ecdysterone low dose group 25 mg/kg; (6) β-ecdysterone medium dose group 50 mg/kg; (7) β-ecdysterone high dose group 100 mg/kg; (8) β-ecdysterone overdose group 200 mg/kg; (9) allopurinol group 25 mg/kg; (10) benzbromarone group 25 mg/kg.
1.2 Establishment of Adenine Combined with Ethambutol-Induced Hyperuricemia Combined with Kidney Injury Model in Rats
Adenine was purchased from Sigma-Aldrich (USA), and 0.5% CMC-Na (sodium carboxymethyl cellulose) solution was used to formulate a suspension at a concentration of 20 mg/mL, ready-to-use, with an administration volume of 5 mL/kg and a dosage of 100 mg/kg. Ethambutol hydrochloride tablets were purchased from Chengdu Jinhua Pharmaceutical Co., Ltd, and 0.5% CMC-Na solution was used to formulate a suspension at a concentration of 50 mg/ml, ready-to-use, with an administration volume of 5 mL/kg and a dosage of 250 mg/kg. The modeling drug adenine 100 mg/kg and ethambutol 250 mg/kg were administered by gavage in the model group and the CQ group at each dose, from day 1, and both were administered once a day for a total of 7 days, to prepare a hyperuricemia rat model. An equal amount of 0.5% CMC-Na solution was administered by gavage in the control group at the relative time.
Observation and detection indicators: fasting for 16 hours after the last administration, blood was collected from the abdominal aorta of rats in each group, centrifuged at 3500 rpm for 15 minutes after standing, separated and collected serum, and the content of uric acid in the serum was measured using an Automatic Chemical Analysis.
Statistical methods: data were expressed as mean±standard deviation and analyzed by one-way ANOVA. Each administration group was compared with the model group separately.

Compound: Oc1ncnc2[nH]ncc12 [Allopurinol, allopurinol, reference compound]
- urate crystals deposition in kidney tissue ([1]; positive drugs, 25 mg/kg): significantly reduced
- BUN ([2]; 25 mg/kg): 12.17 ± 3.03 mmol/L
- SCr ([2]; 25 mg/kg): 48.16 ± 6.95 µmol/L
- serum BUN level compared with the model group ([2]; positive drugs, 25 mg/kg): did not show significant differences
- serum SCr level compared with the model group ([2]; positive drugs, 25 mg/kg): did not show significant differences
- pathology of kidney tissues ([3]; 25 mg/kg): severe renal tubules dilatation, tubular wall thinning, eosinophilic degeneration, and inflammatory cell infiltration were observed
- protective effect on kidney injury combined with hyperuricemia [3]: did not have a significant protective effect
- Blood uric acid ([4]; 25 mg/kg): 109.11 ± 21.66 µmol/L
- Uric acid reduction Percentage ([4]; 25 mg/kg): 48.90%

Compound: CCc1oc2ccccc2c1C(=O)c1cc(Br)c(O)c(Br)c1 [Benzbromarone, benzbromarone, reference compound]
- urate crystals deposition in kidney tissue ([1]; positive drugs, 25 mg/kg): significantly reduced
- BUN ([2]; 25 mg/kg): 10.91 ± 2.66 mmol/L
- SCr ([2]; 25 mg/kg): 50.64 ± 7.92 µmol/L
- serum BUN level compared with the model group ([2]; positive drugs, 25 mg/kg): did not show significant differences
- serum SCr level compared with the model group ([2]; positive drugs, 25 mg/kg): did not show significant differences
- pathology of kidney tissues ([3]; 25 mg/kg): severe renal tubules dilatation, tubular wall thinning, eosinophilic degeneration, and inflammatory cell infiltration were observed
- protective effect on kidney injury combined with hyperuricemia [3]: did not have a significant protective effect
- Blood uric acid ([4]; 25 mg/kg): 112.53 ± 30.78 µmol/L
- Uric acid reduction Percentage ([4]; 25 mg/kg): 44.37%

Compound: CC(C)(O)CC[C@@H](O)[C@](C)(O)[C@H]1CC[C@@]2(O)C3=CC(=O)[C@@H]4C[C@@H](O)[C@@H](O)C[C@]4(C)[C@H]3CC[C@]12C [β-ecdysterone]
- urate crystals deposition in kidney tissue ([1]; 50 mg/kg group): most obvious effect
- urate crystals deposition in kidney tissue ([1]; after administration, versus model group): significantly reduced
- urate crystals deposition in kidney tissue ([1]; lower dose): no significant reduction
- BUN ([2]; 6 mg/kg): 11.34 ± 4.11 mmol/L
- SCr ([2]; 6 mg/kg): 51.72 ± 7.35 µmol/L
- BUN ([2]; 12 mg/kg): 9.81 ± 3.76 mmol/L
- SCr ([2]; 12 mg/kg): 47.56 ± 6.11 µmol/L
- BUN ([2]; 25 mg/kg): 7.36 ± 1.71 mmol/L
- SCr ([2]; 25 mg/kg): 40.73 ± 5.79 µmol/L
- BUN ([2]; 50 mg/kg): 7.19 ± 1.00 mmol/L
- SCr ([2]; 50 mg/kg): 41.30 ± 4.08 µmol/L
- BUN ([2]; 100 mg/kg): 7.84 ± 2.04 mmol/L
- SCr ([2]; 100 mg/kg): 42.15 ± 5.01 µmol/L
- BUN ([2]; 200 mg/kg): 8.04 ± 3.96 mmol/L
- SCr ([2]; 200 mg/kg): 44.30 ± 5.21 µmol/L
- serum BUN level compared with the model group ([2]; after administration (p<0.01)): significantly reduced
- serum SCr level compared with the model group ([2]; after administration (p<0.01)): significantly reduced
- serum BUN level compared with the model group ([2]; dose too high): only a slight decreasing trend
- serum SCr level compared with the model group ([2]; dose too high): only a slight decreasing trend
- serum BUN level compared with the model group ([2]; dose too low): no significant difference
- serum SCr level compared with the model group ([2]; dose too low): no significant difference
- pathology of kidney tissues ([3]; 25 mg/kg): tubular dilatation was reduced compared with that of the model group
- pathology of kidney tissues ([3]; high dose group 100 mg/kg): tubular dilatation was reduced compared with that of the model group
- pathology of kidney tissues ([3]; medium dose group 50 mg/kg): tubular dilatation was significantly reduced
- protective effect on kidney injury combined with hyperuricemia [3]: significant protective effect
- pathology of kidney tissues ([3]; overdose group 200 mg/kg): mild tubular dilatation and tubular epithelial cell detachment, and tubular wall thinning in some of the tubules were observed locally
- pathology of kidney tissues ([3]; underdose group (6 and 12 mg/kg)): severe tubular expansion, epithelial cell detachment, eosinophilic degeneration and inflammatory cell infiltration could still be observed
- Blood uric acid ([4]; 6 mg/kg): 154.76 ± 38.71 µmol/L
- Uric acid reduction Percentage ([4]; 6 mg/kg): 4.98%
- Blood uric acid ([4]; 12 mg/kg): 147.55 ± 39.28 µmol/L
- Uric acid reduction Percentage ([4]; 12 mg/kg): 10.10%
- Blood uric acid ([4]; 25 mg/kg): 117.91 ± 43.74 µmol/L
- Uric acid reduction Percentage ([4]; 25 mg/kg): 37.78%
- Blood uric acid ([4]; 50 mg/kg): 110.83 ± 25.02 µmol/L
- Uric acid reduction Percentage ([4]; 50 mg/kg): 46.58%
- Blood uric acid ([4]; 100 mg/kg): 120.19 ± 68.99 µmol/L
- Uric acid reduction Percentage ([4]; 100 mg/kg): 35.17%
- Blood uric acid ([4]; 200 mg/kg): 127.56 ± 61.77 µmol/L
- Uric acid reduction Percentage ([4]; 200 mg/kg): 27.36%
- blood uric acid level compared to the model group ([4]; dose too low (underdose groups)): not significantly reduced

— patent US20240358717A1, “APPLICATION OF B-ECDYSTERONE IN PREPARATION OF MEDICINE FOR URIC ACID-LOWERING AND HYPERURICEMIC KIDNEY INJURY” (Institute of Chinese Materia Medica, China Academy of …, priority 2023, published 2024)
